In patent US10421782B2, “Cyclic cationic peptides with antimicrobial activity” (I.C.F. S.R.L., priority 2012, dated 2019):
In brackets after ≈: the same amount, converted by molar mass. Several values for one entry are separate records, joined by “and”; a condition that tells them apart may be missing. Equal entries are not always repeated. Where two headings read alike, the source gives them in different places.

Columns and labels:
[1] = tested on: P. aeruginosa ATCC 27853; format: cell-based, Pseudomonas aeruginosa; conditions: ATCC 27853, 2 h
Method: (§1) Several peptides were tested for their ability to inhibit bacterial growth in liquid culture. Fifty microliters of peptide at a concentration between about 0.2 mM and 50 mM were added in 96-well U-bottom plates containing phosphate buffer 10 mM supplemented with 125 or 250 mM NaCl and one of the following bacteria: Escherichia coli ATCC 25922, P. aeruginosa ATCC 27853. After 2 hour incubation at 37° C., bacteria were transferred on a solid medium. As a growth control, the bacterial cultures were cultured in the absence of peptides.
(§2) The bacterial suspension was put in contact for two hours with different concentrations of the peptide at the temperature of 37° C. After incubation, 20 μl were drawn from the wells of each dilution and seeded on the solid medium agar McConkey for Gram-negative bacteria and Columbia agar supplemented with 5% bovine red blood cells for Gram-positive bacteria. The inoculum was evenly distributed on the agarized medium by means of a sterile disposable loop. After incubation for 24 h at the temperature of 37° C., counting of the colony forming units (CFU) was performed.
In table 6A, the antimicrobial activity against E. coli ATCC 25922, Pseudomonas aeruginosa ATCC 27853 in the presence of […] NaCl is reported.

[2] = tested on: Malassezia pachydermatis ATCC 14522; assay: Broth-microdilution test and subsequent plating on agar, fungi (yeasts); format: cell-based; conditions: 2 h contact at 37° C., CFU count on agar Sabouraud
Method: (§3) The inoculum was set up by culturing Candida albicans ATCC 10231 and Malassezia pachydermatis ATCC 14522 in Czapek-Dox broth medium (DIFCO) for 48-72 h. On the assay day, the fungal culture was centrifuged at 1700×g for 15 min, the pellet was resuspended in phosphate buffer and submitted to shaking by the use of an electric vortex to disperse the fungal cell aggregates. The suspension was diluted until an optical density equal to an opacity of 0.5 on the McFarland turbidimetric scale was reached, which contains approximately 1-5×10^6 cell/ml (Branda J. A., Krantz A. Effectc of yeast on automated cell counting. Am J Clin Pathol., 2006:126, 248-254).
(§4) The peptides were tested for their ability to inhibit fungal growth. Fifty microliters of peptide at a concentration comprised between about 0.2 mM and about 50 mM were added in 96-well U-bottom plates containing phosphate buffer and one of the following fungi: Candida albicans ATCC 10231 and Malassezia pachydermatis ATCC 14522. After 2 h incubation at 37° C., fungi were transferred on the solid medium agar Sabouraud. As a control, fungal cultures were cultured in the absence of peptide.
as §2, with “fungal” for “bacterial”, “Sabouraud.” for “McConkey for Gram-negative bacteria and Columbia agar supplemented with 5% bovine red blood cells for Gram-positive bacteria.”, “fungal colonies” for “colony forming units”

[3] = tested on: Candida albicans ATCC 10231; assay: as above; format: cell-based; conditions: 2 h contact at 37° C., CFU count on agar Sabouraud
Method: as §3, §4
as §2, with “fungal” for “bacterial”, “Sabouraud.” for “McConkey for Gram-negative bacteria and Columbia agar supplemented with 5% bovine red blood cells for Gram-positive bacteria.”, “fungal colonies” for “colony forming units”

[4] = tested on: Stenotrophomonas maltophilia ATCC 13637; assay: Broth-microdilution test and subsequent plating on agar, Gram-negative bacteria; format: cell-based; conditions: 2 h contact at 37° C., CFU count after 24 h
Method: (§5) For each bacterial strain, 3-5 morphologically similar colonies were drawn from fresh cultures, inoculated in Brain Hearth Infusion broth liquid medium and incubated at the temperature of 37° C. under shaking at 225 r.p.m. for 3-4 h. Subsequently, the bacterial suspension was centrifuged at 1000 g for 20 min and the thus obtained pellet was resuspended in phosphate buffer 10 mM. Turbidity was measured in a spectrophotometer with absorbance at 600 nm, equivalent in the range 0.08-0.13 to a concentration of about 10^8 CFU/ml. The bacterial suspension was diluted 1:100 in phosphate buffer 10 mM, and within 30 min 50 microliters of such bacterial suspension (10^6 CFU/ml) were inoculated in each well of the microtiter plate, to obtain a final bacterial concentration of about 5×10^5 CFU/ml.
as §1, with “concentration comprised” for “concentration”, “liquid growth medium” for “phosphate buffer 10 mM supplemented with 125 or 250 mM NaCl”, “27853, Stenotrophomonas maltophilia ATCC 13637.” for “27853.”, “control,” for “control, the”
(§6) The bacterial suspension was put in contact for two hours with different concentrations of the peptide at the temperature of 37° C. After incubation, 20 μl were drawn from the wells of each dilution and seeded on solid medium, agar McConkey. The inoculum was evenly distributed on the agarized medium by means of a sterile disposable loop. After incubation for 24 h at the temperature of 37° C., counting of the bacterial colonies (CFU) was performed.

[5] = tested on: E. coli ML-35pYC; assay: Membrane permeabilization assay (CENTA / ONPG kinetics); format: cell-based, Escherichia coli; conditions: peptide 12.5 μg/ml, logistic 4-parameter fit, read up to 240 min
Method: The strain ML-35pYC of E. coli was used to assay the kinetics of membrane permeabilization performed by the peptides of the invention. This bacterial strain expresses resistance to ampicillin, constitutive expression of cytoplasmic beta-galactosidase, and is engineered with a plasmid for the synthesis of a periplasmic beta-lactamase. Sixty microliters (60 μl) of bacterial suspension of strain ML-35pYC of E. coli were added to 60 μl of a 15 mM solution of ONPG or 1.5 mM of CENTA in phosphate buffer. Subsequently, 120 μl of the test peptides were added to obtain a final concentration of 12.5 μg/ml. The kinetics of the reaction was evaluated by recording the value of absorbance at […] and 405 nm, for ONPG and CENTA respectively, every 10 min up to a maximum of 240 min.
By “fitting” the experimental points with the logistic 4-parameter curve, it was possible to determine the inflexion point, that is the point where the curve changes direction, relative to the 3 test peptides. No inflexion point was observed during the assay with CENTA (inflexion point higher than 500 min).

[6] = tested on: Pseudomonas aeruginosa ATCC 27853; format: cell-based
Method: as §5
as §1, with “concentration comprised” for “concentration”, “liquid growth medium” for “phosphate buffer 10 mM supplemented with 125 or 250 mM NaCl”, “27853, Stenotrophomonas maltophilia ATCC 13637.” for “27853.”, “control,” for “control, the”
as §6

[7] = tested on: Escherichia coli ATCC 25922; format: cell-based; conditions: for LD90 E. coli ATCC 25922: 2 h contact at 37° C., CFU count after 24 h
Method: as §5
as §1, with “concentration comprised” for “concentration”, “liquid growth medium” for “phosphate buffer 10 mM supplemented with 125 or 250 mM NaCl”, “27853, Stenotrophomonas maltophilia ATCC 13637.” for “27853.”, “control,” for “control, the”
as §6

With `CC[C@H](C)[C@@H]1NC(=O)[C@H](CCCCN)NC(=O)[C@H](C)NC(=O)[C@@H](NC(=O)[C@H](CCCCN)NC(=O)[C@@H](N)Cc2c[nH]cn2)CSSC[C@@H](C(=O)N[C@@H](C)C(=O)O)NC(=O)[C@H](Cc2ccc(O)cc2)NC(=O)[C@H](CCCCN)NC(=O)[C@H](C(C)C)NC(=O)[C@H](Cc2c[nH]cn2)NC(=O)[C@H](C(C)C)NC(=O)CNC(=O)[C@H](CCCNC(=N)N)NC(=O)[C@H](Cc2c[nH]c3ccccc23)NC(=O)[C@H](CCCCN)NC1=O` (relative stereo) [Peptide P2041, HIS*LYS*CYS*ALA*LYS*ILE*LYS*TRP*ARG*GLY*VAL*HIS*VAL*LYS*TYR*CYS*ALA] the “Antimicrobial activity (percentage of CFU growth inhibition) P. aeruginosa” value ([1]; 12.5 μg/ml) was 100%, the “Antimicrobial activity (percentage of CFU growth inhibition) P. aeruginosa” value ([1]; 100 μg/ml) was 100% and the “LD90 Malassezia pachydermatis” value [2] was 0.85 µM. For the same compound, the “LD90 Candida albicans” value [3] was 1.42 µM, the “LD90 S. maltophilia ATCC 13637” value [4] was 2.67 µM and the “Inflexion point CENTA” value ([5]; CENTA substrate (periplasmic beta-lactamase)) was over 500 min. The “Inflexion point ONPG” value ([5]; ONPG substrate (cytoplasmic beta-galactosidase)) was 16.08 min, the “LD90 P. aeruginosa ATCC 27853” value ([6]; 2 h contact at 37° C., CFU count after 24 h) was 2.14 µM and the “MBC P. aeruginosa ATCC 27853” value ([6]; ATCC 27853) was 2.08 µg/mL (≈ 1.03 µM). For the same compound, the “LD90 E. coli ATCC 25922” value [7] was 0.83 µM, the “LD90 E. coli ATCC 25922” value ([7]; listed as 2041) was 1.57 μg/ml and 0.83 μM and the “MBC E. coli ATCC 25922” value ([7]; ATCC 25922) was 3.05 µg/mL (≈ 1.51 µM).
